Tests used:
Experiment in all cases: GRmax, 72 h; higher = less effect;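 further: breast cell lines in 384-well plates, nine doses across a 10^4 range, Dye Drop imaging of viable cells vs DMSO and time-zero plates, GR 0 means no net growth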
MCF12A = system: MCF12A
UACC812 = system: UACC812
HCC1937 = system: HCC1937
PDXHCI002 = system: PDXHCI002
SKBR3 = system: SKBR3
BT549 = system: BT549
PDX1258 = system: PDX1258
EFM19 = system: EFM19
SUM1315 = system: SUM1315
BT20 = system: BT20
MDAMB175VII = system: MDAMB175VII
UACC893 = system: UACC893

SMILES | GRmax, 72 h (MCF12A) [GR] | GRmax, 72 h (UACC812) [GR] | GRmax, 72 h (HCC1937) [GR] | GRmax, 72 h (PDXHCI002) [GR] | GRmax, 72 h (SKBR3) [GR] | GRmax, 72 h (BT549) [GR] | GRmax, 72 h (PDX1258) [GR] | GRmax, 72 h (EFM19) [GR] | GRmax, 72 h (SUM1315) [GR] | GRmax, 72 h (BT20) [GR] | GRmax, 72 h (MDAMB175VII) [GR] | GRmax, 72 h (UACC893) [GR]
CN1CC[C@H](c2c(O)cc(O)c3c(=O)cc(-c4ccccc4Cl)oc23)[C@H](O)C1 [Flavopiridol] (max 1 µM) | -0.15 | -0.813 | -0.215 | -0.143 | -0.656 | -0.44 | -0.507 | -0.21 | -0.887 | -0.639 | -0.309 | -0.464
CC(C)n1nc(-c2ccc3oc(N)nc3c2)c2c(N)ncnc21 [INK128/MLN0128] (max 3.162 µM) | 0.103 | -0.707 | 0.358 | 0.229 | -0.506 | 0.0717 | -0.138 | -0.128 | 0.0256 | -0.0045 | -0.886 | -0.483
CC(C)NC[C@@H](C(=O)N1CCN(c2ncnc3c2[C@H](C)C[C@H]3O)CC1)c1ccc(Cl)cc1 [Ipatasertib/GDC0068] (max 10 µM) | 0.654 | 0.0704 | 0.535 | 1.1 | 0.356 | 0.496 | 0.399 | 0.066 | 0.607 | 0.102 | -0.5 | -0.794
CN(C)C(=O)c1cc2cnc(Nc3ccc(N4CCNCC4)cn3)nc2n1C1CCCC1 [LEE011/Ribociclib] (max 10 µM) | 0.789 | 0.0889 | 1.03 | 0.508 | 0.476 | 0.97 | 1.08 | 0.386 | 0.444 | 0.092 | 0.159 | 0.469
CCNC(=O)c1noc(-c2cc(C(C)C)c(O)cc2O)c1-c1ccc(CN2CCOCC2)cc1 [Luminespib/NVP-AUY922] (max 1 µM) | -0.316 | -0.521 | -0.187 | -0.281 | -0.0766 | -0.106 | -0.29 | 0.0263 | -0.081 | -0.049 | -0.455 | -0.898
CCOc1cc2ncc(C#N)c(Nc3ccc(OCc4ccccn4)c(Cl)c3)c2cc1NC(=O)/C=C/CN(C)C [Neratinib/HKI272] (max 3.162 µM) | 0.103 | -0.756 | 0.3 | -0.161 | -0.253 | 0.208 | 0.203 | 0.718 | 0.114 | 0.303 | -0.979 | -0.901
O=C(c1cc(Cc2n[nH]c(=O)c3ccccc23)ccc1F)N1CCN(C(=O)C2CC2)CC1 [Olaparib/AZD2281] (max 10 µM) | 0.832 | 0.199 | 0.685 | 0.265 | 0.565 | 0.543 | 0.577 | 0.63 | 0.0911 | 0.606 | 0.466 | 0.549
CC(=O)O[C@H]1C(=O)[C@@]2(C)[C@H]([C@H](OC(=O)c3ccccc3)[C@]3(O)C[C@H](OC(=O)[C@H](O)[C@@H](NC(=O)c4ccccc4)c4ccccc4)C(C)=C1C3(C)C)[C@]1(OC(C)=O)CO[C@@H]1C[C@@H]2O [Paclitaxel] (max 1 µM) | -0.124 | -0.852 | 0.0104 | -0.512 | -0.34 | -0.207 | -0.0818 | -0.639 | -0.326 | -0.576 | -0.469 | -0.384
CS(=O)(=O)N1CCN(Cc2cc3nc(-c4cccc5[nH]ncc45)nc(N4CCOCC4)c3s2)CC1 [Pictilisib/GDC0941] (max 10 µM) | 0.331 | -0.601 | 0.278 | -0.0101 | -0.127 | 0.146 | 0.0518 | -0.154 | 0.13 | -0.165 | -0.903 | -0.878
O=C1NC(=NCc2cccs2)SC1=Cc1ccc2ncccc2c1 [R0-3306] (max 10 µM) | 0.458 | -0.171 | -0.117 | 0.0529 | -0.0433 | -0.0782 | -0.274 | 0.0987 | -0.252 | -0.274 | -0.0257 | 0.376
CNCc1ccc(-c2[nH]c3cc(F)cc4c3c2CCNC4=O)cc1 [Rucaparib] (max 10 µM) | 0.825 | 0.661 | 0.815 | 0.516 | 0.757 | 0.91 | 0.564 | 0.96 | 0.0259 | 0.875 | 0.56 | 0.502
CC1(N)CCN(c2cnc(-c3cccc(Cl)c3Cl)c(N)n2)CC1 [SHP099] (max 10 µM) | 0.929 | 0.651 | 0.797 | 0.63 | 1.02 | 0.825 | 1.09 | 0.992 | 0.523 | 0.914 | -0.0734 | 0.703
CN1CCN(CCOc2cc(OC3CCOCC3)c3c(Nc4c(Cl)ccc5c4OCO5)ncnc3c2)CC1 [Saracatinib/AZD0530] (max 10 µM) | 0.414 | -0.847 | 0.651 | 0.0015 | 0.279 | 0.556 | 0.184 | 0.139 | 0.0846 | 0.31 | -0.935 | 0.141

Reference: the supplement of paper PMC9663587
